How the values were obtained:
S18 and C666-1 cells = experiment: Wound-healing assay; assay type: cell-based; details: vs cells not treated
Protocol: We seeded S18 and C666-1 cells in 6-well plates at 80% to 90% confluence. After a 24-h incubation period, cells were wounded by using a 0.2-mL pipette tip to scratch the subconfluent cell monolayer. Then, we removed the detached cells by washing with PBS just before casticin 16 µM was added to each well of the plate. Cells were maintained in serum-free medium and allowed to migrate for 24 h. An inverted microscope was used to capture cell migration images after 24 h. The speed of migration was determined by dividing the length of the gap and the wound areas in the resultant images.

panel of 468 kinases = experiment: KINOMEscan selectivity profiling; assay type: binding, human; details: 10 μM
Protocol: (§1) Selectivity profiling of casticin against a selected panel of 468 kinases distributed throughout the kinome was performed by DiscoverRx (http://www.discoverx.com/home) using the KINOMEscan screening platform at a test concentration of 10 μM. Since KINOMEscan is a binding assay and may not reflect the inhibitory activity of a compound, the binding constant (Kd) of casticin was calculated from a standard dose–response curve using the Hill equation: Response = Background + (Signal − Background)/[1 + (Kd^Hill Slope/Dose^Hill Slope)]. We then tested casticin in the SelectScreen assay (Invitrogen, USA) to calculate the IC50 of casticin that directly targeted the active site of ATP in PI3K kinase.

NPC cell lines = experiment: CCK-8 cell viability assay, NPC cell lines; assay type: cell-based
Protocol: (§2) The effects of casticin on the growth of the 12 cell lines were determined using the Cell Counting Kit-8 (CCK-8) assay (Dojindo, Japan). Briefly, cells were plated in 96-well plates at 4 × 10^3 cells/well in 100 μL and were treated with a gradient of casticin concentrations (0, 1, 2, 4, 8 µM). After incubation for 24, 48, or 72 h, 10 μL of the CCK-8 reagent was added into each well, and the plate was incubated for an additional 1 or 2 h. Next, a microplate reader (Bio-Rad, model 550) was used to detect absorbance at 490 nm in each well. We repeated the experiments three times. Cell viability was calculated using the following formula: […].

S18 cells [1] = experiment: S18 xenograft mouse model; assay type: in vivo, nude mice
Protocol: (§3) Generation and characterization of the xenograft mouse model were conducted in accordance with the guidelines of the Ministry of Science and Technology of China and were approved by the Animal Ethics Committee of Southern Medical University. All efforts were made to minimize animal suffering during the experiments. Five-week-old nude mice were obtained from the Guangdong Experimental Animal Ccenter. To assess the tumour growth, 5 × 10^6 S18 cells and 1 × 10^7 C666-1 cells were injected subcutaneously into the left or right side of the back of each mouse (three mice per group). When tumours reached approximately 100 mm^3, the mice were randomized to the control and casticin treatment groups. Casticin was diluted in 10% DMSO in normal saline (NS) and injected intraperitoneally at 40 mg/kg daily, while the control group received only NS vehicle. Tumour sizes were measured with a caliper and recorded every 3 days. Tumour volume was calculated as follows: tumour volume = (length × width^2) × 0.5. Body weight was recorded every 2–3 days during the treatment, and the tumour weight was measured at the end of the experiment.

Nanog, sox2, and Oct4 = experiment: Western blotting, stem cell markers; assay type: cell-based; details: C666-1; 0, 4, 8, 16 µM; 24 h; dose-dependent
Source text: (§4) We used standard approaches and methods for Western blotting (WB) analyses. In brief, nasopharyngeal carcinoma cells were lysed on ice in Pierce RIPA buffer (Thermo Scientific) containing a Halt protease inhibitor cocktail (Sigma-Aldrich) and phosphatase inhibitors (Keygen Biotech). We measured protein concentration using a Beyotime protein assay protocol following the manufacturer’s instructions. Proteins were separated by using sodium dodecyl sulfate polyacrylamide gel electrophoresis and were then transferred to polyvinylidene difluoride membranes (0.45 µm; Millipore). […] The total S6, AKT, and mTOR antibodies were used on the same blots as the respective phosphorylated proteins after stripping (stripping buffer, CWBIO, China). All primary antibodies were diluted in Tris-buffered saline containing Tween 20 and 5% bovine serum albumin (BSA), and a peroxidase conjugate (Bioworld) was used as the secondary antibody. Anti-β-actin (20536-I, Proteintech) was used as a loading control. Immuno-reactive bands were visualized using an enhanced chemo-luminescence kit (Thermo Fisher Scientific), and images were captured using a ChemiDoc™ XRS molecular imager (Bio-Rad). Densitometry of band intensity was performed using ImageJ software.

[2] = test system: PI3K family, including wild-type and mutant kinases; experiment: KINOMEscan binding to PI3K family; set-up: species or system human; details: 10 μM
Protocol: as §1

S18 cells [3] = experiment: Transwell migration assay; assay type: cell-based; details: concentration-dependent
C666-1 cells [4] = experiment: C666-1 xenograft mouse model; assay type: in vivo, nude mice; details: 40 mg/kg daily i.p.
Protocol: as §3

C666-1 cells [5] = experiment: Cell cycle analysis by flow cytometry, C666-1; assay type: cell-based; details: 8 µM casticin for 24 h
Protocol: (§5) S18 and C666-1 cells were treated with 0, 2, 4, and 8 µM casticin for 24 h. The cells were then collected, washed with phosphate-buffered saline (PBS), and fixed with 75% ethanol overnight. Subsequently, the cells were centrifuged (1500 rpm, 5 min) and incubated with 10 mg/mL RNase and 1 mg/mL propidium iodide (PI) at 37 °C for 30 min in the dark. Finally, we analysed cell cycle distribution by using flow cytometry (FACSCalibur; BD Biosciences, Bedford, MA, USA).

[6] = test system: S18, CNE2, C666-1 tumour spheres; experiment: 3D tumour sphere formation assay; assay type: cell-based; details: 20 µM casticin for 72 h; vs untreated spheres
Protocol: S18, CNE2, and C666-1 cells (2 × 10^4 each) were cellected, counted and seeded into a cell culture flask with a novel 3D tumour sphere culture system. The 3D tumour sphere culture system with NPC cells was cultured at 37 °C in a humid atmosphere with 5% CO2, the diameters of tumour spheroids were measured when the tumour sphere diameter was ≥ […] [15] and then incubated with 20 µM casticin for 72 h, the original medium was discarded, the cells were cultured for approximately 1 week, and the tumour spheres that were ≥ 100 µm in diameter were counted under a bright field microscope.

S18 cells [7] = experiment: Annexin V/PI staining assay; assay type: cell-based; details: 48 h
Protocol: For the apoptosis test, S18 and C666-1 cells were treated with casticin at concentrations of 0, 1, 2, and 4 µM and of 0, 2, 4, and 8 µM for 48 h. Next, cells were collected and washed once with PBS. After centrifugation (1500 rpm, 5 min), cells were resuspended in 1× annexin V (AV) binding buffer and incubated with 5 µL of AV and PI at 37 °C for 30 min. Cell apoptosis was evaluated by using flow cytometry (FACSCalibur).

[8] = test system: normal nasopharyngeal mucosal epithelial cell line NP69; experiment: CCK-8 cell viability assay, NP69; assay type: cell-based; details: NP69 cells
Protocol: as §2

BCL-2, BAX, p21 = experiment: Western blotting, cell cycle and apoptosis related proteins; assay type: cell-based
Source text: as §4

[9] = test system: PI3K/AKT/mTOR signalling pathway; experiment: Western blotting, PI3K/AKT/mTOR signalling in S18 and C666-1; assay type: cell-based
Source text: as §4

S18 cells [10] = experiment: Colony formation assay; assay type: cell-based
Protocol: S18 and C666-1 cells were incubated in 6-well plates with either 0, 1, 2, and 4 µM casticin for 12 h with 1 µM casticin for 0, 6, 12, and 24 h. There after, 500 cells were seeded in each well of a 6-well plate and cultured without casticin for 8–10 days. Subsequently, the cells were fixed with methanol and stained with haematoxylin. After washing and drying, colonies with more than 50 cells were counted under a microscope (Leica, Wetzlar, Germany).

S18 cells [11] = experiment: Cell cycle analysis by flow cytometry, S18; assay type: cell-based; details: 8 µM casticin for 24 h
Protocol: as §5

[12] = target: T1, PIK3CA/PIK3R3 (p110a/p55 gamma) (Homo sapiens, UniProt P42336); experiment: SelectScreen biochemical kinase activity assay
T1 construct: purchased Invitrogen (SelectScreen service)
Protocol: as §1

[13] = target: T2, PIK3CA E542K/PIK3R1 (p110 alpha/p85 alpha) (Homo sapiens, UniProt P42336, E542K); experiment: SelectScreen biochemical kinase activity assay
T2 construct: purchased Invitrogen (SelectScreen service)
Protocol: as §1

[14] = target: T3, PIK3CA ( p110 alpha/p85 alpha ) (Homo sapiens, UniProt P42336); experiment: SelectScreen biochemical kinase activity assay
T3 construct: purchased Invitrogen (SelectScreen service)
Protocol: as §1

[15] = target: T4, PIK3CA E545K/PIK3R1 (p110 alpha E545K/p85 alpha) (Homo sapiens, UniProt P42336, E545K); experiment: SelectScreen biochemical kinase activity assay
T4 construct: purchased Invitrogen (SelectScreen service)
Protocol: as §1

[16] = test system: phosphorylation of S6, AKT and mTOR; experiment: Western blotting, PI3K signalling after BYL719 in sensitive and resistant cell lines; assay type: cell-based; details: sensitive cells (HONE1, CNE1) compared to resistant cells (S18, C666-1, HONE-EBV+)
Source text: as §4, with “All primary antibodies were diluted in Tris-buffered saline containing Tween 20 and 5% bovine serum albumin (BSA), and a peroxidase conjugate (Bioworld) was used as the secondary antibody. Anti-β-actin (20536-I, Proteintech) was used as a loading control.” left out, “Densitometry of band intensity was performed using ImageJ software.” left out
To identify BYL719-insensitive NPC cell lines, the response of 12 NPC cell lines to BYL719 was screened by viability assay (Fig. 5a). […] Both sensitive cell lines increased S-phase arrest and apoptosis rates (as measured by AV staining) compared with the those in the BYL719-insensitive cell lines (Fig. 5b, c). […]

p110α = test system: p110α; set-up: method as in PMID 23903756; details: 1 μM; cited from earlier work
HONE1 and CNE1 = experiment: Viability assay, response to BYL719; assay type: cell-based; details: 1 µM BYL719, 72 h
Protocol: as §2
To identify BYL719-insensitive NPC cell lines, the response of 12 NPC cell lines to BYL719 was screened by viability assay (Fig. 5a). […] Only two NPC cell lines, HONE1 and CNE1, were sensitive to 1 µM BYL719 after 72 h (Fig. 5a). Both sensitive cell lines increased S-phase arrest and apoptosis rates (as measured by AV staining) compared with the those in the BYL719-insensitive cell lines (Fig. 5b, c). We studied PI3K signalling in three resistant (S18, C666-1 and HONE-EBV+) (Fig. 5d) and two sensitive cell lines (HONE1 and CNE1) after treatment with a gradient of BYL719 concentrations (Fig. 5e). […]

[17] = 40 mg/kg daily i.p., vs NS group
[18] = read-out: Inhibited kinase activity(%) at 1μM of Casticin

T2 sequence (P42336 whole entry E542K): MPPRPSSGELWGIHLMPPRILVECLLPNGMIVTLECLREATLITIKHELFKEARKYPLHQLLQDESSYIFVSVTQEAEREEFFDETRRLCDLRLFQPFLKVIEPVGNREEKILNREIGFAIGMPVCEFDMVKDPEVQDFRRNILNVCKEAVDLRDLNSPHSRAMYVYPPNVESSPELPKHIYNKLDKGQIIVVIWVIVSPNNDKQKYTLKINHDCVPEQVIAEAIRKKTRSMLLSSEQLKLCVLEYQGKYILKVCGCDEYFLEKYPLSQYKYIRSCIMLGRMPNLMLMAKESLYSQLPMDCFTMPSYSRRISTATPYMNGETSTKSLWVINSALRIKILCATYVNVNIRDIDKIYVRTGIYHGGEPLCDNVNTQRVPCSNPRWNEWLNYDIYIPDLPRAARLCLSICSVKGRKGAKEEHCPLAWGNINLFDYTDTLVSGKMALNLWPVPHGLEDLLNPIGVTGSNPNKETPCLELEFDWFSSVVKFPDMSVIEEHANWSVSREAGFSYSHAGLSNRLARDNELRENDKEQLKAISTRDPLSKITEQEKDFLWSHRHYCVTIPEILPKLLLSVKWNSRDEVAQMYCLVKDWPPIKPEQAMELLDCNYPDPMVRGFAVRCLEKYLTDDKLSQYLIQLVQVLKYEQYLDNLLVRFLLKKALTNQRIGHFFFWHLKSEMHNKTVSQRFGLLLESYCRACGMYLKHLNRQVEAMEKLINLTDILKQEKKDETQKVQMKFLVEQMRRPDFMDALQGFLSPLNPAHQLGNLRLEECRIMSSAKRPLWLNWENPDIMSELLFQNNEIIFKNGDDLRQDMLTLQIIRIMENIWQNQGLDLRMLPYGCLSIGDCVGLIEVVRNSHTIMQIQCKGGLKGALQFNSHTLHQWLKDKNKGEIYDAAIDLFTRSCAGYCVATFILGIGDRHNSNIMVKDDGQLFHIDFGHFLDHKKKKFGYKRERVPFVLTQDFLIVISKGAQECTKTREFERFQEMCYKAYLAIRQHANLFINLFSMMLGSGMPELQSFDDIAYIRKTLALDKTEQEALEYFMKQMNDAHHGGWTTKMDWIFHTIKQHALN
T2 sequence (P27986 whole entry partner): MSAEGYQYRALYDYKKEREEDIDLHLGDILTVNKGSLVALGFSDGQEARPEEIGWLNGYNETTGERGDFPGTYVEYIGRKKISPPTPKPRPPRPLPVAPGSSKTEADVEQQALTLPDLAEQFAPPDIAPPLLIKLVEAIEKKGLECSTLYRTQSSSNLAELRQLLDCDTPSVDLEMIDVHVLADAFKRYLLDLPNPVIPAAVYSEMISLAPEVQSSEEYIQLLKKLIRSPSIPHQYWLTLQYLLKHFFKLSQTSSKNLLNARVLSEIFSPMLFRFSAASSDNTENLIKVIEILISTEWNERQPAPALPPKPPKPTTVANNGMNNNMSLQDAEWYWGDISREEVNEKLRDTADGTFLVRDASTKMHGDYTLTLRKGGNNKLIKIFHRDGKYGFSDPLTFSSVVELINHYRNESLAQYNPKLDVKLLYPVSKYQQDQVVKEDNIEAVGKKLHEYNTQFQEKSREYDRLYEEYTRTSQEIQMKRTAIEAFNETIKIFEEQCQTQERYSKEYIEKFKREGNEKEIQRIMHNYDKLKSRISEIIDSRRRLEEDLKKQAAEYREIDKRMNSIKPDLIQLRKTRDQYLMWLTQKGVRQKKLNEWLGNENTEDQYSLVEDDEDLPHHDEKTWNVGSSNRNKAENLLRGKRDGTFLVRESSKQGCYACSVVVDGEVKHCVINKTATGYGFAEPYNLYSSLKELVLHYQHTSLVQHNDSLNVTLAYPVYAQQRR
T1 sequence (P42336 whole entry): as the sequence (P42336 whole entry E542K) above, with K542E counted along it
T3 sequence (P42336 whole entry): as the sequence (P42336 whole entry E542K) above, with K542E counted along it
T3 sequence (P27986 whole entry partner): as the sequence (P27986 whole entry partner) above
T4 sequence (P42336 whole entry E545K): as the sequence (P42336 whole entry E542K) above, with K542E, E545K counted along it
T4 sequence (P27986 whole entry partner): as the sequence (P27986 whole entry partner) above

COc1ccc(-c2oc3cc(OC)c(OC)c(O)c3c(=O)c2OC)cc1O [casticin, 3′,5-dihydroxy-3,4′,6,7-tetramethoxyflavone]
gap-closing speeds (S18 and C666-1 cells): significantly decreased | S score (1) (panel of 468 kinases): 0.01 | binding to other kinases (panel of 468 kinases; KINOMEscan): did not demonstrate strong binding | IC50 on viability compared with BYL719 (NPC cell lines; 12 NPC cell lines, 24 h): lower than that of BYL719 | cell viability (NPC cell lines; eleven NPC cell lines, gradient of concentrations, 24, 48, 72 h, concentration-dependent): decreased | damage to the liver or kidney (haematoxylin and eosin histopathology) (S18 cells [1]; 40 mg/kg daily i.p.): without any obvious subsequent damage to the liver or kidney | tumour size (S18 cells [1]; 40 mg/kg daily i.p. for 12 days, 18 days after implantation): smaller than those in the control group | tumour growth rate (tumour volume) (S18 cells [1]; [17]): lower than NS group | tumour weight (S18 cells [1]; [17]): lighter than NS group | ratios of liver and kidney weight to body weight (S18 cells [1]; S18 model, 40 mg/kg daily i.p.): not statistically significant between groups | expression of tumour stemness markers Nanog, sox2, Oct4 (Nanog, sox2, and Oct4): reduced expression | percent control number [2]: less than 1 | number of migrating cells (S18 cells [3]): significantly reduced | tumour growth and liver/kidney histology in C666-1 in vivo model (C666-1 cells [4]): findings similar to those with the S18 model | percentage of cells in the G2/M phase (C666-1 cells [5]): 62.54 ± 4.91% | tumour sphere growth [6]: significant reduction in tumour growth | early and late apoptosis (S18 cells [7]; 1 μM): significantly increased | apoptotic frequency (S18 cells [7]; 4 μM): approximately 75% | effect on cell growth compared to BYL719 [8]: less effective | cell viability ([8]; gradient of concentrations, 24, 48, 72 h): resistant | p21 expression (BCL-2, BAX, p21; S18 and C666-1, 24 h): increased | BCL-2/BAX ratio (BCL-2, BAX, p21; casticin-treated S18 and C666-1 cells): significantly decreased in a dose-dependent manner | phosphorylation of AKT (T308, S473) and mTOR (Ser2481, Ser2448) ([9]; 24 h, increasing casticin concentrations, dose-dependent): significant reduction | clonogenic ability (S18 cells [10]; 1 µM casticin, vs control group): diminished as early as 6 h | clonogenic activity (S18 cells [10]; S18 cells, 0, 1, 2, 4 µM for 12 h): significant reduction | percentage of cells in the G2/M phase (S18 cells [11]): 62.90 ± 1.97% | IC50 [12]: 574 nM | inhibition at 1 µM [12, 18]: 46% | IC50 [13]: 306 nM | inhibition at 1 µM [13, 18]: 57% | IC50 ([14]; PI3K (p110α/p85α)): 616 nM | inhibition at 1 µM [14, 18]: 56% | IC50 [15]: 544 nM | inhibition at 1 µM [15, 18]: 54%

Cc1nc(NC(=O)N2CCC[C@H]2C(N)=O)sc1-c1ccnc(C(C)(C)C(F)(F)F)c1 [BYL719]
phosphorylation of S6, AKT and mTOR [16]: significantly reduced | phosphorylation of ATK (Ser473 and Thr308) or mTORC1 ([9]; BYL719 1 µM alone, 12 h): did not reduce | block of p110 subunits (p110α): blocked p110α without affecting the other p110 subunits | sensitivity class by viability (IC50 cut-off 1 μM) (HONE1 and CNE1): sensitive

— paper PMC6925493, “Casticin inhibits nasopharyngeal carcinoma growth by targeting phosphoinositide 3-kinase” (Cancer Cell International, 2019)
